Results reported in PubChem BioAssay AID248 (DTP/NCI, 2004).
Values joined by “and” are separate entries in the source; they are usually repeats but may differ in a detail not shown here. Equal entries are not always repeated. Toxic doses and inconclusive results are not listed. No stated cut-off is given here; in the data, active means T/C of 150% or more; inactive means T/C below 125%.

Test system: L1210 leukemia ip in BDF1 mice, survival T/C
Assay: NCI In Vivo Anticancer Drug Screen. Data for tumor model L1210 Leukemia (intraperitoneal) in B6D2F1 (BDF1) mice
Details: higher = longer survival
Method in brief: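 Mice bearing the transplanted tumor received compound or vehicle. Survival of the treated group was divided by that of the vehicle-treated control group to give the ratio.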

[1] = endpoint: mean survival time, dose: 100.0 mg/kg/injection, schedule: Q04DX003 (ip), vehicle: saline with Tween-80
[2] = endpoint: mean survival time, dose: 200.0 mg/kg/injection, schedule: Q04DX003 (ip), vehicle: saline with Tween-80
[3] = endpoint: mean survival time, dose: 400.0 mg/kg/injection, schedule: Q04DX003 (ip), vehicle: saline with Tween-80
[4] = endpoint: mean survival time, dose: 100.0 mg/kg/injection, schedule: Q04DX003 (ip), vehicle: Klucel (hydroxypropylcellulose) (HPC)
[5] = endpoint: mean survival time, dose: 200.0 mg/kg/injection, schedule: Q04DX003 (ip), vehicle: Klucel (hydroxypropylcellulose) (HPC)
[6] = endpoint: mean survival time, dose: 400.0 mg/kg/injection, schedule: Q04DX003 (ip), vehicle: Klucel (hydroxypropylcellulose) (HPC)
[7] = endpoint: mean survival time, dose: 100.0 mg/kg/injection, schedule: Q01DX001 (ip), vehicle: saline
[8] = endpoint: mean survival time, dose: 200.0 mg/kg/injection, schedule: Q01DX001 (ip), vehicle: saline

Measured: T/C

N=C(N)c1ccc(Nc2ccc(C(=N)N)cc2)cc1
inactive: endpoint: mean survival time, dose: 3.0 mg/kg/injection, schedule: Q01DX010 (ip), vehicle: saline 95 % of control and 91 % of control | endpoint: mean survival time, dose: 6.0 mg/kg/injection, schedule: Q01DX010 (ip), vehicle: saline 95 % of control and 91 % of control | endpoint: mean survival time, dose: 12.0 mg/kg/injection, schedule: Q01DX010 (ip), vehicle: saline 94 % of control and 97 % of control | endpoint: mean survival time, dose: 15.0 mg/kg/injection, schedule: Q02DX010 (ip), vehicle: carboxymethylcellulose (CMC) 99 % of control | endpoint: mean survival time, dose: 24.0 mg/kg/injection, schedule: Q01DX010 (ip), vehicle: saline 89 % of control and 91 % of control | endpoint: mean survival time, dose: 30.0 mg/kg/injection, schedule: Q02DX010 (ip), vehicle: carboxymethylcellulose (CMC) 103 % of control | endpoint: mean survival time, dose: 44.0 mg/kg/injection, schedule: Q02DX010 (ip), vehicle: carboxymethylcellulose (CMC) 89 % of control | endpoint: mean survival time, dose: 47.0 mg/kg/injection, schedule: Q01DX001 (ip), vehicle: water 97 % of control | endpoint: mean survival time, dose: 66.0 mg/kg/injection, schedule: Q02DX010 (ip), vehicle: carboxymethylcellulose (CMC) 77 % of control | endpoint: median survival time, dose: 6.0 mg/kg/injection, schedule: Q01DX009 (ip), vehicle: saline 105 % of control and 112 % of control | endpoint: median survival time, dose: 12.0 mg/kg/injection, schedule: Q01DX009 (ip), vehicle: saline 112 % of control | endpoint: median survival time, dose: 24.0 mg/kg/injection, schedule: Q01DX009 (ip), vehicle: saline 87 % of control

CCOC(=O)C1CCCCN1 (stereo not drawn)
inactive: endpoint: mean survival time, dose: 75.0 mg/kg/injection, schedule: Q01DX001 (ip), vehicle: saline 91 % of control | endpoint: mean survival time, dose: 150.0 mg/kg/injection, schedule: Q01DX001 (ip), vehicle: saline 91 % of control

NC(CCl)=NC1CN2CCC1CC2 (stereo not drawn)
inactive: endpoint: mean survival time, dose: 25.0 mg/kg/injection, schedule: Q04DX002 (ip), vehicle: saline 101 % of control | endpoint: mean survival time, dose: 50.0 mg/kg/injection, schedule: Q04DX002 (ip), vehicle: saline 90 % of control | endpoint: mean survival time, dose: 100.0 mg/kg/injection, schedule: Q04DX002 (ip), vehicle: saline 102 % of control

NC(CS(=O)c1ccc([N+](=O)[O-])cc1Cl)C(=O)O (stereo not drawn)
inactive: [1] 103 % of control | [2] 95 % of control | [3] 101 % of control

COC(=O)Nc1nc2ccc(Br)cc2[nH]1
inactive: endpoint: mean survival time, dose: 100.0 mg/kg/injection, schedule: Q01DX009 (ip), vehicle: Klucel (hydroxypropylcellulose) (HPC) 100 % of control | [4] 92 % of control | endpoint: mean survival time, dose: 200.0 mg/kg/injection, schedule: Q01DX009 (ip), vehicle: Klucel (hydroxypropylcellulose) (HPC) 100 % of control | [5] 96 % of control | endpoint: mean survival time, dose: 400.0 mg/kg/injection, schedule: Q01DX009 (ip), vehicle: Klucel (hydroxypropylcellulose) (HPC) 109 % of control | [6] 94 % of control

CN=C(NC)c1ccc(NC(=O)c2cc(C(=O)Nc3ccc(C(=NC)NC)cc3)cc([N+](=O)[O-])c2)cc1
inactive: endpoint: mean survival time, dose: 2.0 mg/kg/injection, schedule: Q01DX Z (ip), vehicle: water 97 % of control | endpoint: mean survival time, dose: 4.0 mg/kg/injection, schedule: Q01DX Z (ip), vehicle: water 100 % of control | endpoint: mean survival time, dose: 7.5 mg/kg/injection, schedule: Q01DX Z (ip), vehicle: saline 100 % of control | endpoint: mean survival time, dose: 7.5 mg/kg/injection, schedule: Q01DX Z (ip), vehicle: water 112 % of control | endpoint: mean survival time, dose: 15.0 mg/kg/injection, schedule: Q01DX Z (ip), vehicle: saline 96 % of control and 110 % of control | endpoint: mean survival time, dose: 15.0 mg/kg/injection, schedule: Q01DX Z (ip), vehicle: water 108 % of control

Cn1cc(NC(=O)c2cc(NC(=O)c3cc(NC=O)cn3C)cn2C)cc1C(=O)NCCC(=N)N
inactive: endpoint: mean survival time, dose: 12.5 mg/kg/injection, schedule: Q01DX009 (ip), vehicle: Klucel (hydroxypropylcellulose) (HPC) 95 % of control | endpoint: mean survival time, dose: 25.0 mg/kg/injection, schedule: Q01DX009 (ip), vehicle: Klucel (hydroxypropylcellulose) (HPC) 98 % of control | endpoint: mean survival time, dose: 25.0 mg/kg/injection, schedule: Q01DX Z (ip), vehicle: water 100 % of control | endpoint: mean survival time, dose: 50.0 mg/kg/injection, schedule: Q01DX009 (ip), vehicle: Klucel (hydroxypropylcellulose) (HPC) 92 % of control | endpoint: mean survival time, dose: 50.0 mg/kg/injection, schedule: Q01DX Z (ip), vehicle: water 104 % of control | endpoint: mean survival time, dose: 75.0 mg/kg/injection, schedule: Q01DX Z (ip), vehicle: water 104 % of control | endpoint: mean survival time, dose: 100.0 mg/kg/injection, schedule: Q01DX Z (ip), vehicle: water 100 % of control

COc1ccc(C(=O)Nc2ccc([N+](=O)[O-])cc2O)cc1
inactive: [4] 103 % of control | [5] 104 % of control | [6] 97 % of control

CCSC(C(OC(C)=O)C(OC(C)=O)C(OC(C)=O)C(COC(C)=O)OC(C)=O)n1cnc2c(=S)nc[nH]c21 (stereo not drawn)
inactive: endpoint: mean survival time, dose: 100.0 mg/kg/injection, schedule: Q04DX003 (ip), vehicle: saline sonified 102 % of control | endpoint: mean survival time, dose: 200.0 mg/kg/injection, schedule: Q04DX003 (ip), vehicle: saline sonified 96 % of control | endpoint: mean survival time, dose: 400.0 mg/kg/injection, schedule: Q04DX003 (ip), vehicle: saline sonified 91 % of control

O=C(O)C(Br)C(Br)C(=O)Nc1cccc(Cl)c1 (stereo not drawn)
inactive: endpoint: mean survival time, dose: 100.0 mg/kg/injection, schedule: Q04DX002 (ip), vehicle: saline with Tween-80 91 % of control | endpoint: mean survival time, dose: 200.0 mg/kg/injection, schedule: Q04DX002 (ip), vehicle: saline with Tween-80 95 % of control | endpoint: mean survival time, dose: 400.0 mg/kg/injection, schedule: Q04DX002 (ip), vehicle: saline with Tween-80 88 % of control

COc1ccccc1C(=O)NN
inactive: endpoint: mean survival time, dose: 6.25 mg/kg/injection, schedule: Q04DX003 (ip), vehicle: saline 98 % of control | endpoint: mean survival time, dose: 12.5 mg/kg/injection, schedule: Q04DX003 (ip), vehicle: saline 98 % of control | endpoint: mean survival time, dose: 25.0 mg/kg/injection, schedule: Q01DX009 (ip), vehicle: saline 106 % of control | endpoint: mean survival time, dose: 25.0 mg/kg/injection, schedule: Q04DX003 (ip), vehicle: saline 103 % of control | endpoint: mean survival time, dose: 50.0 mg/kg/injection, schedule: Q01DX009 (ip), vehicle: saline 110 % of control

O=C1c2cc(Cl)ccc2-c2c(Cl)cc(Cl)cc21
inactive: endpoint: mean survival time, dose: 100.0 mg/kg/injection, schedule: Q01DX001 (ip), vehicle: acetone 89 % of control | endpoint: mean survival time, dose: 100.0 mg/kg/injection, schedule: Q04DX003 (ip), vehicle: saline 87 % of control | endpoint: mean survival time, dose: 200.0 mg/kg/injection, schedule: Q01DX001 (ip), vehicle: acetone 89 % of control | endpoint: mean survival time, dose: 200.0 mg/kg/injection, schedule: Q04DX003 (ip), vehicle: saline 96 % of control | endpoint: mean survival time, dose: 400.0 mg/kg/injection, schedule: Q01DX001 (ip), vehicle: acetone 95 % of control | endpoint: mean survival time, dose: 400.0 mg/kg/injection, schedule: Q04DX003 (ip), vehicle: saline 86 % of control

CNc1nc2nc[nH]c2c(=S)n1C
inactive: [7] 103 % of control | [8] 100 % of control

Nc1ncnc2c1ncn2C1OC(CCO)C(O)C1O (stereo not drawn)
inactive: endpoint: mean survival time, dose: 100.0 mg/kg/injection, schedule: Q01DX001 (ip), vehicle: carboxymethylcellulose (CMC) 100 % of control | endpoint: mean survival time, dose: 200.0 mg/kg/injection, schedule: Q01DX001 (ip), vehicle: carboxymethylcellulose (CMC) 96 % of control | endpoint: mean survival time, dose: 400.0 mg/kg/injection, schedule: Q01DX001 (ip), vehicle: carboxymethylcellulose (CMC) 93 % of control

CCCNC(=O)Nc1cccc(Cl)c1C
inactive: endpoint: mean survival time, dose: 100.0 mg/kg/injection, schedule: Q01DX009 (ip), vehicle: saline with Tween-80 102 % of control | [1] 101 % of control | endpoint: mean survival time, dose: 200.0 mg/kg/injection, schedule: Q01DX009 (ip), vehicle: saline with Tween-80 94 % of control | [2] 94 % of control | endpoint: mean survival time, dose: 400.0 mg/kg/injection, schedule: Q01DX009 (ip), vehicle: saline with Tween-80 100 % of control | [3] 100 % of control

O=S(=O)(c1ccc(OCC(O)COc2ccc(S(=O)(=O)c3ccc(OCC4CO4)cc3)cc2)cc1)c1ccc(OCC2CO2)cc1 (stereo not drawn)
inactive: [7] 106 % of control | [8] 109 % of control | endpoint: mean survival time, dose: 400.0 mg/kg/injection, schedule: Q01DX001 (ip), vehicle: saline 104 % of control
